In PMC2955773 (ACS chemical biology, 2010):

Columns and labels:
Format in all cases: cell-based
Nox2 = target: T1, Nox2 (Homo sapiens, UniProt P04839); test: HEK293-Nox2 selectivity assay
T1 sequence (P04839 2-570 limits assumed): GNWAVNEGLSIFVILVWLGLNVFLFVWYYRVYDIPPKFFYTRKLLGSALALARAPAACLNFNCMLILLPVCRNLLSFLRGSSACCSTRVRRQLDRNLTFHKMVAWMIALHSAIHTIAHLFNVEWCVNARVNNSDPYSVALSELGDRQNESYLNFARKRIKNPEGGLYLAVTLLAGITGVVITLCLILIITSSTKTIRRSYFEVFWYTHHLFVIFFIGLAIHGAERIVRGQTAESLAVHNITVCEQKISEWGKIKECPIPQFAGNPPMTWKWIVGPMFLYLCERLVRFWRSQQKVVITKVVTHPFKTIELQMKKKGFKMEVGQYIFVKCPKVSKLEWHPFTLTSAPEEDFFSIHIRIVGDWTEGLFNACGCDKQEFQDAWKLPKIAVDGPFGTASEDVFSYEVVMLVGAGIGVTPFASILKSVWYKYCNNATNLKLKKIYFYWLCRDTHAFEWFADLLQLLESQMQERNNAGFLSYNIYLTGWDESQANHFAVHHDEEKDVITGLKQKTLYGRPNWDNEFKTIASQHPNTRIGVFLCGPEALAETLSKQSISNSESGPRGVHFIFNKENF
T1 sequence (P13498 2-195 partner limits assumed): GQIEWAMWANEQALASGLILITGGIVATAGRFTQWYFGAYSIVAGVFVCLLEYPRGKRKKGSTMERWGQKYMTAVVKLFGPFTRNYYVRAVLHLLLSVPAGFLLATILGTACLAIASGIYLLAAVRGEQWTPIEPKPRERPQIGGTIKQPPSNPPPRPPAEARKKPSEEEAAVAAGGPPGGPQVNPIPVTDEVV

Nox3 = target: T2, Nox3 (Homo sapiens, UniProt Q9HBY0); test: HEK293-Nox3 selectivity assay
T2 sequence (Q9HBY0 1-568): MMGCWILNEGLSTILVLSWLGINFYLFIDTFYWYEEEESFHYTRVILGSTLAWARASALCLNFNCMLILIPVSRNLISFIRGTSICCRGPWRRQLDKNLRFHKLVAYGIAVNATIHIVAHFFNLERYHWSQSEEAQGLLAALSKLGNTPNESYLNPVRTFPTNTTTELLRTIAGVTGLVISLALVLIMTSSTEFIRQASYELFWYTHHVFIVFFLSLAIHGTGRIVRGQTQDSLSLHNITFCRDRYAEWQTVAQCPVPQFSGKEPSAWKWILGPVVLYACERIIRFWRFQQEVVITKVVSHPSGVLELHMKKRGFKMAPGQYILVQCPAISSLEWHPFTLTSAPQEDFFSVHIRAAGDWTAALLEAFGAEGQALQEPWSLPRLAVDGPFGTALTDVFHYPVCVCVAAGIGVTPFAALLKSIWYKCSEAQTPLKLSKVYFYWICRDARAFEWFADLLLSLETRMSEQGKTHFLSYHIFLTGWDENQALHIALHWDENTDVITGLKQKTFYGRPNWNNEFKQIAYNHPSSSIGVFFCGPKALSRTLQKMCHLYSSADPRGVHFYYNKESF
T2 sequence (P13498 2-195 partner limits assumed): T1 sequence (P13498 2-195 partner limits assumed)

Nox4 = target: T3, Nox4 (Homo sapiens, UniProt Q9NPH5); test: HEK293-Nox4 selectivity assay
T3 sequence (Q9NPH5 1-578): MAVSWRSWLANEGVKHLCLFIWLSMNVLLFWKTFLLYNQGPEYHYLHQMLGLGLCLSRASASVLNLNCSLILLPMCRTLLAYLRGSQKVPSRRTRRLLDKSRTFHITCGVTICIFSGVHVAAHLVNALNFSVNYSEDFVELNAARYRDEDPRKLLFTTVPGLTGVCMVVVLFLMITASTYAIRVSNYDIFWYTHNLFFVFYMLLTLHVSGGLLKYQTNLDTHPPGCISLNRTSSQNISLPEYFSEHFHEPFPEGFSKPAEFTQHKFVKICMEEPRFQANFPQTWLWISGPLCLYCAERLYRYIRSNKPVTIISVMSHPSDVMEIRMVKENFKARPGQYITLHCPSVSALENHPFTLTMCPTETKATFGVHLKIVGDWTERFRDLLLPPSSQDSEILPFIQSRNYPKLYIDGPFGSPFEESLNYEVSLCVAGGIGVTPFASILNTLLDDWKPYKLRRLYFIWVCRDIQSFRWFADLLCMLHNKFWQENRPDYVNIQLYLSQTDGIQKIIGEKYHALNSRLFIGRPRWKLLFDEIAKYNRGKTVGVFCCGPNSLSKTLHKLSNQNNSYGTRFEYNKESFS
T3 sequence (P13498 2-195 partner limits assumed): T1 sequence (P13498 2-195 partner limits assumed)

HT29 cells = test: CellTiter Glo toxicity assay; details: 10 μM in HT29 cells

- activity on other Nox isoforms (Nox2): only a marginal activity
- activity on other Nox isoforms (Nox3): only a marginal activity
- activity on other Nox isoforms (Nox4): only a marginal activity
SMILES: FC(F)(F)c1ccc2c(c1)Nc1ccccc1S2
- cell death (HT29 cells): did not cause cell death
